Legend:
Assay type in all cases: cell-based
[1] = test system: J-Lat A1 cells, U1 cells, primary CD4+ T cells; test: Cell proliferation / S-phase progression by BrdU ELISA; conditions: U1 cells or primary CD4+ T cells, 12 nM PEP005, 24 hours
Experimental: FIG. 7: PEP005 causes minimal cytotoxicity and T cell proliferation. To evaluate the impact of PEP005 on the cell viability, U1 cells (A), J-Lat A1 cells (B) and CD4+ T cells (C) were treated with 12 nM of PEP005 for 24 hours, the cell viability was examined with the MTT assay and the S-phase cell cycle progression was evaluated after BrdU incorporation using BrdU ELISA. 25-50 μM Etoposide or 100-150 μM Doxorubicin (Doxo) served as positive controls for MTT and BrdU assays respectively. Statistical analysis was performed in comparison with controls. **, p<0.01.
Cells were placed in 96-well plates and incubated for 24 or 72 h hrs with compounds. Cell viability was measured using MTT assay (Roche Laboratories), and cell proliferation/S-phase progression was determined by using BrdU ELISA kit (Cell signaling, #1863).

[2] = test system: latent HIV in J-Lat A1 cells; test: HIV latency reactivation in J-Lat A1 cells (GFP expression by flow cytometry)
Experimental: (§1) FIG. 1: PEP005 induces reactivation of HIV latency in vitro. J-Lat A1 cells were exposed to different concentrations of PEP005 and virus reactivation was measured by GFP expression using flow cytometry. Cell viability was determined by Live/Dead dye staining. (A) Chemical Structure of PEP005. […] (D) PEP005 potently reactivates latent HIV in cell lines compared with other LRAs. J-Lat A1 cells were treated with 10 nM PEP005, 500 nM SAHA, 2 μM JQ1, 2 μM GSK343, 10 ng/ml TNF, 2 μM Prostratin, or 5 ng/ml PMA for 24 hours and the percentage of GFP expression was evaluated using flow cytometry. *, p<0.05; **, p<0.01.
FIG. 2: PEP005 synergizes with other latency reversing agents in reactivating latent HIV. (A) J-Lat A1 cells were treated with 5 ng/ml PMA, 6 nM PEP005, 500 nM SAHA, 2 μM JQ1, 2 μM GSK343, or 10 μM Prostratin alone or in combination with 6 nM PEP005 for 24 hours and the percentage of GFP expressing cells was determined using flow cytometry. **, p<0.01; *, p<0.05 compared with control treatment; **, p<0.01; *, p<0.05 compared with PEP005 treatment alone. (B) The U1 cells were treated with 5 ng/ml PMA, 6 nM PEP005, 500 nM SAHA, 2 μM JQ1, or 2 μM GSK343, alone or in combination with 6 nM PEP005 for 24 hours and the HIV transcription was evaluated using RT-qPCR. Numbers indicate fold-increase over the control. **, p<0.01; *, p<0.05 compared with control treatment; **, p<0.01; *, p<0.05 compared with PEP005 treatment alone. […] The Bliss independence model was utilized for calculation of synergy for LRA combinations. Dotted horizontal line signifies pure additive effect (Δfaxy=0). Synergy is defined as Δfaxy>0 while Δfaxy<0 indicates antagonism. Statistical significance was determined using a one tailed ratio t-test comparing predicted and observed drug combination effects. *p<0.05; **p<0.01.
J-Lat A1 cells (harboring a single copy of latent HIV LTR and one copy of green fluorescent protein gene under the HIV LTR control) or U1 cells (harboring two latent HIV genomes with defective Tat gene) were cultured in RPMI1640 medium with 10% fetal bovine serum (FBS) and 1% Pen/strep in a 37° C. incubator containing 5% CO2 [24,31]. Both of the cell lines were obtained from NIH AIDS Reagent Program. For reactivation of HIV LTR, cells were treated with PMA (Sigma), JQ1 (Biovision), Prostatin (Sigma), SAHA (Santa Cruz), TNF-α (BD), GSK343 (Sigma), or PEP005 (Tocris Bioscience) for 24 h. HIV reactivation was quantified by GFP expression using flow cytometry and the data were analyzed using FlowJo Software for J-Lat A1 cells, or by quantitative RT-PCR (RT-qPCR) for J-Lat A1 and U1 cells. Cell viability was evaluated using Live/Dead dye (Life Technologies) by flow cytometry. So far, there is not a single in vitro cell culture model available that captures all the features of HIV latency. However, PKC agonists seem to reactivate latent HIV in all the cell culture models of viral latency. Similar to other J-Lat cell lines, the J-Lat A1 clone has been widely used by researchers for HIV latency studies. The T-cell-derived J-Lat A1 cells harbor one copy of a construct containing a Tat and a green fluorescent protein (GFP) gene framed by the 5′ and 3′ HIV LTR [32]. The J-Lat A1 cells also contain the TAR loop located within the R region of HIV LTR (nt +1 to +60), which provides an opportunity for Tat-TAR interactions for the modulation of transcription and transcriptional elongation. […]

latent HIV in U1 cells = test: HIV transcription in U1 cells (RT-qPCR); conditions: 6 nM PEP005, 2 μM JQ1, 24 h
Experimental: FIG. 2: PEP005 synergizes with other latency reversing agents in reactivating latent HIV. (A) J-Lat A1 cells were treated with 5 ng/ml PMA, 6 nM PEP005, 500 nM SAHA, 2 μM JQ1, 2 μM GSK343, or 10 μM Prostratin alone or in combination with 6 nM PEP005 for 24 hours and the percentage of GFP expressing cells was determined using flow cytometry. **, p<0.01; *, p<0.05 compared with control treatment; **, p<0.01; *, p<0.05 compared with PEP005 treatment alone. (B) The U1 cells were treated with 5 ng/ml PMA, 6 nM PEP005, 500 nM SAHA, 2 μM JQ1, or 2 μM GSK343, alone or in combination with 6 nM PEP005 for 24 hours and the HIV transcription was evaluated using RT-qPCR. […] Statistical significance was determined using a one tailed ratio t-test comparing predicted and observed drug combination effects. *p<0.05; **p<0.01.
(§2) J-Lat A1 cells (harboring a single copy of latent HIV LTR and one copy of green fluorescent protein gene under the HIV LTR control) or U1 cells (harboring two latent HIV genomes with defective Tat gene) were cultured in RPMI1640 medium with 10% fetal bovine serum (FBS) and 1% Pen/strep in a 37° C. incubator containing 5% CO2 [24,31]. […] HIV reactivation was quantified by GFP expression using flow cytometry and the data were analyzed using FlowJo Software for J-Lat A1 cells, or by quantitative RT-PCR (RT-qPCR) for J-Lat A1 and U1 cells. […]

J-Lat A1 cells = test: Cell viability of J-Lat A1 cells by Live/Dead dye staining; conditions: 2-40 nM PEP005
Experimental: as §1
as §2, with “[24,31]. Both of the cell lines were obtained from NIH AIDS Reagent Program.” for “[24,31].”, “cells. Cell viability was evaluated using Live/Dead dye (Life Technologies) by flow cytometry.” for “cells.”

SMILES: C/C=C(/C)C(=O)O[C@H]1C(C)=C[C@]23C(=O)[C@@H](C=C(CO)[C@@H](O)[C@]12O)[C@H]1[C@@H](C[C@H]3C)C1(C)C [PEP005, (1aR,2S,5R,5aS,6S,8aS,9R,10aR)-5,5a-Dihydroxy-4-(hydroxymethyl)-1,1,7,9-tetramethyl-11-oxo-1a,2,5,5a,6,9,10,10a-octahydro-1H-2,8a-methanocyclopenta[a]cyclpropa[e][10]annulen-6-yl (2Z)-2-methylbut-2-enoate]
- proportion of cells in S-phase (BrdU) [1]: did not induce any significant increase
- concentration at which effect on HIV expression was evident [2]: 2 nM
- HIV reactivation compared to other compounds known to reactivate HIV ([2]; 10 nM PEP005 vs 500 nM SAHA, 2 μM JQ1, 2 μM GSK343, 2 μM Prostratin, 5 ng/ml PMA, 24 h): more potent than SAHA
- increase in the reactivation of HIV latency compared to untreated controls ([2]; 20 nM PEP005): 7 fold
- induction of HIV expression, agent alone ([2]; GFP, 24 h, PEP005 2-40 nM, GSK343 2 μM): dose-dependent manner
- increase in latent HIV reactivation / HIV transcription compared to controls (latent HIV in U1 cells): about 25 fold
- cellular toxicity (J-Lat A1 cells): absence of any apparent cellular toxicity
